Like-named read-outs stand apart in the source and are kept apart here.

The test system of experiment [1] is non-cancerous retinal pigment epithelium (RPE-1) cells. The experiment is described as follows: (Photo-)cytotoxicity on 2D cell monolayers, resazurin assay, RPE-1.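 As to all read-outs here: cells exposed to compound 4 h, medium exchanged, then irradiated or kept dark, 44 h further growth, viability by resorufin fluorescence (ex 540 nm, em 590 nm).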 The conditions noted are these: for PI (480 nm): RPE-1, dark vs 480 nm (10 min, 3.1 J/cm^2).
Experiment [2] has as its system human cervical carcinoma (HeLa) cells. The experiment is described as follows: (Photo-)cytotoxicity on 2D cell monolayers, resazurin assay, HeLa. The conditions noted are these: for PI (480 nm): dark vs 480 nm (10 min, 3.1 J/cm^2). The format is cell-based. The source says: Before an experiment, the cells were passaged three times.
Another experiment deals with HeLa MCTS. Briefly: (Photo-)cytotoxicity on 3D multicellular tumor spheroids (ATP, CellTiter-Glo 3D). It counts as cell-based, human. The conditions noted are these: for IC50: Homo sapiens. How it is done:
autoclave. The hot emulsion was transferred into wells (50 μL per well) of a 96 cell culture well plate. The plates were exposed for 3 h to UV irradiation to ensure the sterility and allow the agarose solution to cool down. After this time, the agarose was overlayed with a HeLa cell suspension at a density of 3000 cells per well in 150 μL of media. The MCTS were cultivated and maintained at 37° C. in a cell culture incubator at 37° C. with 5% CO2 atmosphere. The culture media was replaced every two days. Within two-three days MCTs were formed from the cell suspension. The formation as well as integrity, diameter and volume of the MCTs was monitored by an Axio Observer Z1 (Carl Zeiss) phase contrast microscope. The volume was calculated using the following formula: V=4/3πr^3. The luminescence images along the z-axis were captured by a one-(λex=458 nm, λem=600-750 nm) or two-photon (λex=800 nm, λem=600-750 nm) excitation in the z-stack mode with a an LSM 880 (Carl Zeiss) laser scanning confocal microscope equipped with Argon and a Coherent Chameleon 2-Photon laser and a GaAsP detector.
The cytotoxicity of the compounds in 3D multicellular tumor spheroids (MCTS) was assessed by measurement of the ATP concentration. MCTS were treated with increasing concentrations of the compound (2% DMSO, v %) by replacing 50% of the media with drug supplemented media and incubation for 12 h. After this time, the MCTS were divided in three identical groups. The first group was strictly kept in the dark. The second group was exposed to a one-photon irradiation (500 nm, 10 J/cm^2) using a LED and the third group was exposed to a two-photon irradiation (800 nm, 10 J/cm^2) with a section interval of 5 μm using a LSM 880 (Carl Zeiss, Germany) laser scanning confocal microscope equipped with a Coherent Chameleon 2-Photon laser. After the irradiation, all groups were incubated additional 48 h. The ATP concertation was measured using a CellTiter-Glo 3D Cell Viability kit (Promega) by measuring the generated chemiluminescence with an infinite M200 PRO (Tecan) plate reader.

For experiment [3], the system named is human glioblastoma astrocytoma (U373) cells.
The test system of experiment [4] is mouse colon carcinoma (CT-26) cells. Briefly: (Photo-)cytotoxicity on 2D cell monolayers, resazurin assay, CT-26. To be noted: for IC50: Mus musculus.
Experimental: (§1) The human glioblastoma astrocytoma (U373) cell line was cultured in MEM medium supplemented with 10% FBS, 1% NEAA (non-essential amino-acids) and 1% penicillin/streptomycin. […] The human retinal epithelial cells (RPE-1, non-cancerous cells immortalized with hTERT) were cultured in DMEM-F12 medium supplemented with 10% FBS and 1% penicillin/streptomycin. All cell lines were obtained from the American Type Culture Collection (ATCC) and cultured at 37° C. and 5% CO2. Before an experiment, the cells were passaged three times.
(§2) The cytotoxicity of the compounds was assessed by measuring cell viability using a fluorometric resazurin assay. The cultivated cells were seeded in triplicates in 96 well plates with a density of 4000 cells per well in 100 μL of media. After 24 h, the medium was removed and the cells were treated with increasing concentrations of the compound diluted in cell media achieving a total volume of 200 μL. The cells were incubated with the compound for 4 h. After this time, the media was removed and replaced with 200 μL of fresh medium. For the phototoxicity studies, the cells were exposed to light with an Atlas Photonics LUMOS BIO irradiator. Each well was constantly illuminated with either a 480 nm or 540 nm irradiation. During this time, the temperature was maintained constantly at 37° C. The cells were grown in the incubator for additional 44 h. For the determination of the dark cytotoxicity, the cells were not irradiated and after the medium exchange directly incubated for 44 h. After this time, the medium was replaced with fresh medium containing resazurin with a final concentration of 0.2 mg/mL. After 4 h incubation, the amount of the fluorescent product resorufin was determined upon excitation at 540 nm and measurement its emission at 590 nm using a SpectraMax M2 Microplate Reader (Molecular Devices).
(§3) The obtained data was analyzed with the GraphPad Prism software.
Experiment [5] shares this test system.
Experimental: as §1, §2, §3
Experiment [6] relates to human glioblastoma astrocytoma (U373) cells. The experiment is described as follows: (Photo-)cytotoxicity on 2D cell monolayers, resazurin assay, U373. To be noted: for IC50: Homo sapiens, U373 MG.
The mark [7] stands for this setting: dark, 4 h incubation, compounds 1-3 as chloride salts, read-out: IC50 dark.
Where [8] appears, read: read-out: IC50 480 nm (10 min, 3.1 J/cm^2), irradiation 480 nm (10 min, 3.1 J/cm^2), compounds 1-3 as chloride salts.

In the case of `COc1cccc(/C=C/c2ccnc(-c3cc(/C=C/c4cccc(OC)c4)ccn3)c2)c1.F[P-](F)(F)(F)(F)F.F[P-](F)(F)(F)(F)F.[Ru+2].c1ccc(-c2ccccn2)nc1.c1ccc(-c2ccccn2)nc1` [Compound 12, [Ru(bpy)2((E,E′)-4,4′-Bis[m-methoxystyryl]-2,2′-bipyridine)][PF6]2], the “PI (480 nm)” value in experiment [1] was greater than 63; in experiment [2], greater than 167. The IC50 is greater than 100000 nM in experiment [2] (setting [7]) and 600 ± 300 nM in experiment [2] (setting [8]).

On to `COc1ccccc1C=Cc1ccnc(-c2cc(C=Cc3ccccc3OC)ccn2)c1.F[P-](F)(F)(F)(F)F.F[P-](F)(F)(F)(F)F.[Ru+2].c1ccc(-c2ccccn2)nc1.c1ccc(-c2ccccn2)nc1` [Compound 13, [Ru(bpy)2((E,E′)-4,4′-Bis[o-methoxystyryl]-2,2′-bipyridine)][PF6]2], for which the entries for the “PI (480 nm)” value in experiment [1] and in experiment [2] were greater than 66 and greater than 124, respectively. For the same compound, the IC50 amounted to 62000 ± 10000 nM in experiment [2] (setting [7]) and 500 ± 100 nM in experiment [2] (setting [8]).

In the case of `F[P-](F)(F)(F)(F)F.F[P-](F)(F)(F)(F)F.Fc1ccc(C=Cc2ccnc(-c3cc(C=Cc4ccc(F)cc4)ccn3)c2)cc1.[Ru+2].c1ccc(-c2ccccn2)nc1.c1ccc(-c2ccccn2)nc1` [Compound 14, [Ru(bpy)2((E,E′)-4,4′-Bis[p-fluorostyryl]-2,2′-bipyridine)][PF6]2], the “PI (480 nm)” value in experiment [1] is recorded as greater than 68; in experiment [2] it was greater than 125. The IC50 is greater than 100000 nM in experiment [2] (setting [7]) and 800 ± 100 nM in experiment [2] (setting [8]).

Turning to `F[P-](F)(F)(F)(F)F.F[P-](F)(F)(F)(F)F.Oc1ccc(/C=C/c2ccnc(-c3cc(/C=C/c4ccc(O)cc4)ccn3)c2)cc1.[Ru+2].c1ccc(-c2ccccn2)nc1.c1ccc(-c2ccccn2)nc1` [Compound 15, [Ru(bpy)2((E,E′)-4,4′-Bis[p-hydroxystyryl]-2,2′-bipyridine)][PF6]2], the “PI (480 nm)” value is on record as greater than 9 in experiment [1] and greater than 100 in experiment [2]. In addition, the IC50 in experiment [2] (setting [7]) is greater than 100000 nM; in experiment [2] (setting [8]), 1000 ± 300 nM.

Turning to `COc1ccc(/C=C/c2ccnc(-c3cc(/C=C/c4ccc(OC)cc4)ccn3)c2)cc1.F[P-](F)(F)(F)(F)F.F[P-](F)(F)(F)(F)F.[Os+2].c1ccc(-c2ccccn2)nc1.c1ccc(-c2ccccn2)nc1` [Compound 16, [Os(bpy)2((E,E′)-4,4′-Bis[p-methoxystyryl]-2,2′-bipyridine)][PF6]2], the “PI (480 nm)” value in experiment [1] is greater than 3; in experiment [2], greater than 4. In addition, the IC50 in experiment [2] (setting [7]) is greater than 100000 nM; in experiment [2] (setting [8]) it was 27000 ± 6000 nM.

Regarding `COc1ccc(/C(C)=C/c2ccnc(-c3cc(/C=C(\C)c4ccc(OC)cc4)ccn3)c2)cc1.F[P-](F)(F)(F)(F)F.F[P-](F)(F)(F)(F)F.[Ru+2].c1ccc(-c2ccccn2)nc1.c1ccc(-c2ccccn2)nc1` [Compound 18], the “PI (480 nm)” value in experiment [1] is on record as greater than 3; in experiment [2] it was greater than 6. In addition, the IC50 in experiment [2] (setting [7]) is greater than 100000 nM; in experiment [2] (setting [8]) it was 16700 ± 700 nM.

As to `COc1ccc(/C=C/c2ccnc(-c3cc(/C=C/c4ccc(OC)cc4)ccn3)c2)cc1.F[P-](F)(F)(F)(F)F.F[P-](F)(F)(F)(F)F.[Ru+2].c1cnc(-c2cnccn2)cn1.c1cnc(-c2cnccn2)cn1` [Compound 19, [Ru(bpz)2((E,E′)-4,4′-Bis[p-methoxystyryl]-2,2′-bipyridine)][PF6]2], in experiment [2], the “PI (480 nm)” value is on record as greater than 2. In addition, the IC50 is greater than 100000 nM in experiment [2] (setting [7]) and 59000 ± 8000 nM in experiment [2] (setting [8]).

Consider `C1=Cc2nc1c(-c1ccccc1)c1ccc([nH]1)c(-c1ccccc1)c1nc(c(-c3ccccc3)c3ccc([nH]3)c2-c2ccccc2)C=C1` [Compound H2TPP, tetraphenylporphyrin, reference compound], for which the IC50 in the experiment on HeLa MCTS (dark, 12 h incubation, read-out: IC50 dark) was greater than 100000 nM; in the experiment with HeLa MCTS (light or radiation study, 1-Photon irradiation (500 nm, 10 J/cm^2), read-out: IC50 1-Photon irradiation (500 nm, 10 J/cm^2)) it was greater than 100000 nM; in the experiment with HeLa MCTS (light or radiation study, 2-Photon irradiation (800 nm, 10 J/cm^2, section interval of 5 μm), read-out: IC50 2-Photon irradiation (800 nm, 10 J/cm^2)), greater than 100000 nM. Moreover, the “PI (2-Photon)” value with HeLa MCTS (dark vs 2-Photon irradiation (800 nm, 10 J/cm^2)) is listed as greater than 100.

For `C=CC1=C(C)c2cc3[nH]c(cc4nc(cc5[nH]c(cc1n2)c(C)c5CCC(=O)O)C(CCC(=O)O)=C4C)c(C)c3C=C` [PpIX, Protoporphyrin IX, reference compound], the IC50 in experiment [3] is 1200 ± 300 nM; in experiment [4] (CT26, 4 h, read-out: IC50 dark), 2800 ± 500 nM; in experiment [4] (CT26, light or radiation study, 40 min, read-out: IC50 540 nm (40 min, 9.5 J/cm^2)), 500 ± 200 nM; in experiment [5], 400 ± 200 nM; in experiment [2] (Homo sapiens, dark, 4 h incubation, compounds 1-3 as chloride salts, read-out: IC50 dark) it was greater than 100000 nM; in experiment [2] (Homo sapiens, light or radiation study, 10 min, read-out: IC50 480 nm (10 min), irradiation 480 nm (10 min, 3.1 J/cm^2), compounds 1-3 as chloride salts), 2500 ± 100 nM. In addition, the IC50 in experiment [2] (Homo sapiens, light or radiation study, 40 min, read-out: IC50 540 nm (40 min), irradiation 540 nm (40 min, 9.5 J/cm^2), compounds 1-3 as chloride salts) is 2100 ± 300 nM; in experiment [6] (4 h, read-out: IC50 dark), 10100 ± 700 nM; in experiment [6] (light or radiation study, 10 min, read-out: IC50 480 nm (10 min, 3.1 J/cm^2)), 1300 ± 200 nM. Besides, the “PI (480 nm)” value is greater than 26.3 in experiment [1]; 7.0 in experiment [4] (CT-26, dark vs 480 nm (10 min, 3.1 J/cm^2)); greater than 40.0 in experiment [2]; 7.8 in experiment [6] (U373, dark vs 480 nm (10 min, 3.1 J/cm^2)). Moreover, the “PI (540 nm)” value in experiment [1] (RPE-1, dark vs 540 nm (40 min, 9.5 J/cm^2)) is greater than 30.3; in experiment [4] (CT-26, dark vs 540 nm (40 min, 9.5 J/cm^2)) it was 5.6; in experiment [2] (dark vs 540 nm (40 min, 9.5 J/cm^2)), greater than 47.6; in experiment [6] (U373, dark vs 540 nm (40 min, 9.5 J/cm^2)), 8.4.

“[Ru(bpy)2((E,E′)-4,4′-Bis[p-aminostyryl]-2,2′-bipyridine)][PF6]2 [Compound 17]”: the entries for the “PI (480 nm)” value in experiment [1] and in experiment [2] were greater than 13 and greater than 71, respectively. Further, the values for the IC50 in experiment [2] (setting [7]) and in experiment [2] (setting [8]) were greater than 100000 nM and 1400 ± 100 nM, respectively.

The values above are taken from patent US20220409727A1, “Metal Complexes Bearing Bisstyryl-Bipyridine Ligand and Their Use as Photosensitizer Agent in One and Two-Photon Photodynamic Therapy” (Paris Sciences et Lettres, priority 2019, published 2022).
